Assay results: patent US12077537B2 (Gilead Sciences, Inc., priority 2020, dated 2024)

test system: HIV-IIIb; assay: Antiviral assay in MT4 cells; assay type: cell-based; settings: Human immunodeficiency virus 1, MT4, 120 h; MT-4 cells mixed with HIV-IIIb at m.o.i. 0.003; 5 days at 37° C.; CellTiter-Glo luminescence; 50% decrease in signal, a measure of HIV-1 replication
Description: Antiviral Assay in MT4 Cells For the antiviral assay, 40 μL of a concentration required to achieve a final effective 1× test concentration of 3-fold serially diluted compound in culture medium with 10% FBS was added to each well of a 384-well plate (10 concentrations) in quadruplicate. MT-4 cells were next mixed with HIV-IIIb at an m.o.i of 0.003 for 1 hour, after which time 35 μL of virus/cell mixture (2000 cells) was immediately added to each well containing 40 μL of diluted compound. The plates were then incubated at 37° C. for 5 days. After 5 days of incubation, 25 μl of 2× concentrated CellTiter-Glom Reagent (catalog #G7571, Promega Biosciences, Inc., Madison, WI) was added to each well containing MT-4 cells. Cell lysis was carried out by incubating at room temperature for 10 min and then chemiluminescence was read.

Row | SMILES | EC50 [µM]
1 | O=C(Cn1nc(C(F)(F)F)c2c1C(F)(F)[C@@H]1C[C@H]21)N[C@@H](Cc1cc(F)cc(F)c1)c1nc2nc(N3CCN(c4ccc(-c5ncc[nH]5)cc4)CC3)sc2cc1-c1ccc2c(c1)C(=O)NC2 [Compound 34, N—((S)-1-(2-(4-(4-(1H-imidazol-2-yl)phenyl)piperazin-1-yl)-6-(3-oxoisoindolin-5-yl)thiazolo[4,5-b]pyridin-5-yl)-2-(3,5-difluorophenyl)ethyl)-2-((3bS,4aR)-5,5-difluoro-3-(trifluoromethyl)-3b,4,4a,5-tetrahydro-1H-cyclopropa[3,4]cyclopenta[1,2-c]pyrazol-1-yl)acetamide] | 0.0978
2 | O=C(Cn1nc(C(F)F)c2c1C1CC1CC2)N[C@@H](Cc1cc(F)cc(F)c1)c1nc2nc(N3CCN(c4ccc(-c5ncc[nH]5)cc4)CC3)sc2cc1-c1ccc2c(c1)C(=O)NC2 (stereo partly drawn) [Compound 35, N—((S)-1-(2-(4-(4-(1H-imidazol-2-yl)phenyl)piperazin-1-yl)-6-(3-oxoisoindolin-5-yl)thiazolo[4,5-b]pyridin-5-yl)-2-(3,5-difluorophenyl)ethyl)-2-(3-(difluoromethyl)-5,5a,6,6a-tetrahydrocyclopropa[g]indazol-1(4H)-yl)acetamide] | 0.0319
3 | O=C(Cn1nc(C(F)(F)F)c2c1C(F)(F)[C@@H]1C[C@H]21)N[C@@H](Cc1cc(F)cc(F)c1)c1nc2nc(N3CCN(c4ccncc4)CC3)sc2cc1-c1ccc2c(c1)C(=O)NC2 [Compound 36, 2-((3bS,4aR)-5,5-difluoro-3-(trifluoromethyl)-3b,4,4a,5-tetrahydro-1H-cyclopropa[3,4]cyclopenta[1,2-c]pyrazol-1-yl)-N—((S)-2-(3,5-difluorophenyl)-1-(6-(3-oxoisoindolin-5-yl)-2-(4-(pyridin-4-yl)piperazin-1-yl)thiazolo[4,5-b]pyridin-5-yl)ethyl)acetamide] | 0.0287
4 | O=C(Cn1nc(C(F)(F)F)c2c1C(F)(F)[C@@H]1C[C@H]21)N[C@H](Cc1cc(F)cc(F)c1)c1nc2nc(N3CCN(c4ccncc4)CC3)sc2cc1-c1ccc2c(c1)C(=O)NC2 [Compound 37, 2-((3bS,4aR)-5,5-difluoro-3-(trifluoromethyl)-3b,4,4a,5-tetrahydro-1H-cyclopropa[3,4]cyclopenta[1,2-c]pyrazol-1-yl)-N—((R)-2-(3,5-difluorophenyl)-1-(6-(3-oxoisoindolin-5-yl)-2-(4-(pyridin-4-yl)piperazin-1-yl)thiazolo[4,5-b]pyridin-5-yl)ethyl)acetamide] | 1.07
5 | O=C(Cn1nc(C(F)(F)F)c2c1C(F)(F)[C@@H]1C[C@H]21)N[C@@H](Cc1cc(F)cc(F)c1)c1nc2nc(N3CCN(C4COC4)CC3)sc2cc1-c1ccc2c(c1)C(=O)NC2 [Compound 38, 2-((3bS,4aR)-5,5-difluoro-3-(trifluoromethyl)-3b,4,4a,5-tetrahydro-1H-cyclopropa[3,4]cyclopenta[1,2-c]pyrazol-1-yl)-N—((S)-2-(3,5-difluorophenyl)-1-(2-(4-(oxetan-3-yl)piperazin-1-yl)-6-(3-oxoisoindolin-5-yl)thiazolo[4,5-b]pyridin-5-yl)ethyl)acetamide] | 0.0101
6 | CC1(O)CN(c2nc3nc([C@H](Cc4cc(F)cc(F)c4)NC(=O)Cn4nc(C(F)(F)F)c5c4C(F)(F)[C@@H]4C[C@H]54)c(-c4cccc5c4CNC5=O)cc3s2)C1 [Compound 39, 2-((3bS,4aR)-5,5-difluoro-3-(trifluoromethyl)-3b,4,4a,5-tetrahydro-1H-cyclopropa[3,4]cyclopenta[1,2-c]pyrazol-1-yl)-N—((S)-2-(3,5-difluorophenyl)-1-(2-(3-hydroxy-3-methylazetidin-1-yl)-6-(1-oxoisoindolin-4-yl)thiazolo[4,5-b]pyridin-5-yl)ethyl)acetamide] | 0.0146
7 | O=C(Cn1nc(C(F)(F)F)c2c1C(F)(F)[C@@H]1C[C@H]21)N[C@@H](Cc1cc(F)cc(F)c1)c1nc2nc(N3CCN(c4ccncc4)CC3)sc2cc1-c1cccc2c1CNC2=O [Compound 40, 2-((3bS,4aR)-5,5-difluoro-3-(trifluoromethyl)-3b,4,4a,5-tetrahydro-1H-cyclopropa[3,4]cyclopenta[1,2-c]pyrazol-1-yl)-N—((S)-2-(3,5-difluorophenyl)-1-(6-(1-oxoisoindolin-4-yl)-2-(4-(pyridin-4-yl)piperazin-1-yl)thiazolo[4,5-b]pyridin-5-yl)ethyl)acetamide] | 0.0281
8 | NC(=O)c1cc(-c2cc3sc(N4CCN(c5ccc(-c6ncc[nH]6)cc5)CC4)nc3nc2[C@H](Cc2cc(F)cc(F)c2)NC(=O)Cn2nc(C(F)F)c3c2C2CC2CC3)ccc1F (stereo partly drawn) [Compound 41, 5-(2-(4-(4-(1H-imidazol-2-yl)phenyl)piperazin-1-yl)-5-((1S)-1-(2-(3-(difluoromethyl)-5,5a,6,6a-tetrahydrocyclopropa[g]indazol-1(4H)-yl)acetamido)-2-(3,5-difluorophenyl)ethyl)thiazolo[4,5-b]pyridin-6-yl)-2-fluorobenzamide] | 0.0981
9 | O=C(Cn1nc(C(F)(F)F)c2c1C(F)(F)[C@@H]1C[C@H]21)N[C@@H](Cc1cc(F)cc(F)c1)c1nc2nc(N3CCN(c4ccncc4)CC3)sc2cc1-c1ccc2c(c1)C(=O)NC21CC1 [Compound 42, 2-((3bS,4aR)-5,5-difluoro-3-(trifluoromethyl)-3b,4,4a,5-tetrahydro-1H-cyclopropa[3,4]cyclopenta[1,2-c]pyrazol-1-yl)-N—((S)-2-(3,5-difluorophenyl)-1-(6-(3′-oxospiro[cyclopropane-1,1′-isoindolin]-5′-yl)-2-(4-(pyridin-4-yl)piperazin-1-yl)thiazolo[4,5-b]pyridin-5-yl)ethyl)acetamide] | 0.0872
10 | CC1(O)CN(c2nc3nc([C@H](Cc4cc(F)cc(F)c4)NC(=O)Cn4nc(C(F)(F)F)c5c4C(F)(F)[C@@H]4C[C@H]54)c(-c4ccc5c(c4)C(=O)NC54CC4)cc3s2)C1 [Compound 43, 2-((3bS,4aR)-5,5-difluoro-3-(trifluoromethyl)-3b,4,4a,5-tetrahydro-1H-cyclopropa[3,4]cyclopenta[1,2-c]pyrazol-1-yl)-N—((S)-2-(3,5-difluorophenyl)-1-(2-(3-hydroxy-3-methylazetidin-1-yl)-6-(3′-oxospiro[cyclopropane-1,1′-isoindolin]-5′-yl)thiazolo[4,5-b]pyridin-5-yl)ethyl)acetamide] | 0.0225
11 | O=C(Cn1nc(C(F)(F)F)c2c1C(F)(F)[C@@H]1C[C@H]21)N[C@@H](Cc1cc(F)cc(F)c1)c1nc2nc(N3CCN(c4nc5ccccc5[nH]4)CC3)sc2cc1-c1ccc2c(c1)C(=O)NC21CC1 [Compound 44, N—((S)-1-(2-(4-(1H-benzo[d]imidazol-2-yl)piperazin-1-yl)-6-(3′ oxospiro[cyclopropane-1,1′-isoindolin]-5′-yl)thiazolo[4,5-b]pyridin-5-yl)-2-(3,5-difluorophenyl)ethyl)-2-((3bS,4aR)-5,5-difluoro-3-(trifluoromethyl)-3b,4,4a,5-tetrahydro-1H-cyclopropa[3,4]cyclopenta[1,2-c]pyrazol-1-yl)acetamide] | 0.0891
12 | NC(=O)c1cc(-c2cc3sc(N4CCN(c5nc6ccccc6[nH]5)CC4)nc3nc2[C@H](Cc2cc(F)cc(F)c2)NC(=O)Cn2nc(C(F)(F)F)c3c2C(F)(F)[C@@H]2C[C@H]32)ccc1F [Compound 45, 5-(2-(4-(1H-benzo[d]imidazol-2-yl)piperazin-1-yl)-5-((S)-1-(2-((3bS,4aR)-5,5-difluoro-3-(trifluoromethyl)-3b,4,4a,5-tetrahydro-1H-cyclopropa[3,4]cyclopenta[1,2-c]pyrazol-1-yl)acetamido)-2-(3,5-difluorophenyl)ethyl)thiazolo[4,5-b]pyridin-6-yl)-2-fluorobenzamide] | 0.144
13 | NC(=O)c1cc(-c2cc3sc(N4CCN(c5nc6ccccc6[nH]5)CC4)nc3nc2[C@H](Cc2cc(F)cc(F)c2)NC(=O)Cn2nc(C(F)F)c3c2C2CC2CC3)ccc1F (stereo partly drawn) [Compound 46, 5-(2-(4-(1H-benzo[d]imidazol-2-yl)piperazin-1-yl)-5-((1S)-1-(2-(3-(difluoromethyl)-5,5a,6,6a-tetrahydrocyclopropa[g]indazol-1(4H)-yl)acetamido)-2-(3,5-difluorophenyl)ethyl)thiazolo[4,5-b]pyridin-6-yl)-2-fluorobenzamide] | 0.0852
14 | NC(=O)c1cc(-c2cc3sc(N4CCN(c5ccncc5)CC4)nc3nc2[C@H](Cc2cc(F)cc(F)c2)NC(=O)Cn2nc(C(F)F)c3c2C2CC2CC3)ccc1F (stereo partly shown) [Compound 47] | 0.0293
15 | CC1(O)CN(c2nc3nc([C@H](Cc4cc(F)cc(F)c4)NC(=O)Cn4nc(C(F)(F)F)c5c4C(F)(F)[C@@H]4C[C@H]54)c(-c4ccc5n[nH]c(=O)n5c4)cc3s2)C1 [Compound 48, 2-((3bS,4aR)-5,5-difluoro-3-(trifluoromethyl)-3b,4,4a,5-tetrahydro-1H-cyclopropa[3,4]cyclopenta[1,2-c]pyrazol-1-yl)-N—((S)-2-(3,5-difluorophenyl)-1-(2-(3-hydroxy-3-methylazetidin-1-yl)-6-(3-oxo-2,3-dihydro-[1,2,4]triazolo[4,3-a]pyridin-6-yl)thiazolo[4,5-b]pyridin-5-yl)ethyl)acetamide] | 0.249
16 | Cc1c(-c2cc3sc(N4CC(C)(O)C4)nc3nc2[C@H](Cc2cc(F)cc(F)c2)NC(=O)Cn2nc(C(F)(F)F)c3c2C(F)(F)[C@@H]2C[C@H]32)ccc2n[nH]c(=O)n12 [Compound 49, 2-((3bS,4aR)-5,5-difluoro-3-(trifluoromethyl)-3b,4,4a,5-tetrahydro-1H-cyclopropa[3,4]cyclopenta[1,2-c]pyrazol-1-yl)-N—((S)-2-(3,5-difluorophenyl)-1-(2-(3-hydroxy-3-methylazetidin-1-yl)-6-(5-methyl-3-oxo-2,3-dihydro-[1,2,4]triazolo[4,3-a]pyridin-6-yl)thiazolo[4,5-b]pyridin-5-yl)ethyl)acetamide] | 0.0317
